In patent US12023308B2, “Agents for reversing toxic proteinopathies” (THE BROAD INSTITUTE, INC., priority 2019, dated 2024):

Columns and labels:
total MUC1 mRNA = experiment: MUC1 transcription assay (RT-PCR profiling screen) in P cells; format: cell-based, human; settings: P cells, 24 hours
Experimental: qPCR was performed using a previously described protocol (Bittker, 2012). P cells seeded at 2000 cells/well in 384-well, clear bottom, white wall plates were grown for 24 hr, then treated with profiling compounds transferred by pinning to duplicate plates. JQ1 (250 nM) and DMSO were used for controls as above. After 24 hr, cells were washed and cDNAs were made using ABI Cells-to-Ct kit (Thermo Fisher Scientific®, Waltham, Mass.). MUC1 and HMBS delta Cp values were determined using a Roche LightCycler 480 Instrument and TaqMan probes for MUC1 FAM (4351368 assay ID Hs00159357_m1) and HMBS VIC (4448486-assay ID Hs00609297_m1) (Thermo Fisher Scientific®, Waltham, Mass.), in 5 μL reactions. The fold change effect of the compounds on total MUC1 mRNA was normalized to JQ1 and DMSO controls, as described above.

[1] = In vitro toxicity (cell number / viability); format: cell-based; settings: any concentration tested
From the text: Image acquisition and analysis was done as described elsewhere herein. Following image analysis, three parameters were selected, i) MUC1-fs and ii) MUC1-wt total cytoplasm intensity (averaged per cell) and iii) cell number as was detected by Hoechst 33342 stained nuclei. The levels of MUC1-fs and MUC1-wt found following DMSO and JQ1 were defined as 0 and −100% activity, respectively. […] Cell number was normalized to DMSO control. All compound concentrations showing >−20% reduction in cell number were masked out. Based on ±3 median absolute deviation value (FIG. 10A), hit calling criteria for the primary and secondary screens were chosen as MUC1-fs reduction >30% in two or more consecutive concentrations for both replicates. For the secondary screen, dose response curves were generated for each parameter using Genedata Screener (Genedata AG), and positive hits for the profiling screens were selected based on the compounds activity for reducing MUC1-fs and lack of toxicity. MUC1-fs specificity (according to MUC1 fs/wt ratio) was used as an additional positive criterion for selection.

in vivo = settings: mouse
Experimental: 1) A pharmacokinetic study was performed by WuXi AppTec (Hong Kong) in fasted male 129S2/SvPasCrl mice (study #400565-20170331-MPK) to determine the oral bioavailability of BRD-4780. A single dose of BRD-4780 was administered at 3.0 mg/kg intravenously (i.v.) or 10.0 mg/kg orally (p.o) in a clear solution of 10% HP-β-CD in saline. Blood was collected serially from n=3 mice per dose group at eight time points post dose administration (0.25, 0.5, 1, 2, 4, 6, 8 and 24 hours) and plasma was obtained by centrifugation. Plasma drug concentration was determined by LC-MS/MS and reported as BRD-4780 ng/mL for plasma and ng/mg for kidney tissue, and plotted as the mean±standard deviation concentration (FIG. 11A). Standard pharmacokinetic parameters were calculated (FIG. 11B).

MUC1-fs = MUC1-fs subcellular distribution (co-localization IF) in P cells; format: cell-based, human
Experimental: Cell nuclei were first identified using Hoechst staining, and cell number was calculated. Cytoplasmic regions were then detected around each nucleus based on combined channels. The cells from the edge of the field were eliminated from the analysis. For the quantification of protein abundance, the total signal intensity value for each antibody was calculated separately in the cell cytoplasm and the average signal per cell was calculated for each well. For quantitation of MUC1-fs cellular distribution and trafficking, the analysis was performed as described in FIG. 13A using the “spot” identification feature for the detection of MUC1-fs and the different organelles.
Detection of MUC1-fs in P cells at baseline and following secretory pathway perturbations was performed using immunoblot and IF analyses. […] For IF experiments (FIGS. 5B-5D and 13A-13C), P cells were plated in 384-well plates at 12,000 cells/well.

Rhodopsin = experiment: BRD-4780 treatment in Rho-P23H/+ mice, rhodopsin staining of retinal sections; format: in vivo, mouse; settings: 50 mg/Kg/day oral gavage, 28 days
Experimental: Rhodopsin intensity was calculated in retinal sections of Rho/+ mice treated with either vehicle or BRD-4780 (FIGS. 21A and 21B), as compared to wild-type mice treated with vehicle alone. In healthy retina, Rhodopsin primarily localized to the outer segment of the photoreceptors (OS, indicated by the arrow in FIG. 21A), instead of localizing around the photoreceptor nuclei in the outer nuclear layer (ONL, indicated by an asterisk in FIG. 21A). Since there is no Rhodopsin-P23H specific antibody, the amount of Rhodopsin staining in the outer nuclear layer was calculated as a measurement of Rhodopsin accumulation in intracellular compartments. The calculated Rhodopsin staining in the ONL was normalized to the nuclear staining, to correct for differences in cell number.
The effect of BRD-4780 on Rhodopsin accumulation in intracellular compartments of mouse retinae were tested in age-matched Rho-P23H/+ and +/+ male mice. […] Animal weight was observed daily to monitor toxicity. On day 28, mice were sacrificed, and eyes were removed for further analysis.

[2] = Plasma protein binding (equilibrium dialysis); format: in vitro ADME
Experimental: Plasma protein binding was determined by equilibrium dialysis using a Rapid Equilibrium Dialysis (RED) device (Pierce Biotechnology). Each compound was prepared in duplicate at 5 μM in plasma (0.95% acetonitrile, 0.05% DMSO) and added to one side of the membrane with PBS pH 7.4 added to the other side. Compounds were incubated at 37° C. for 5 hr with a 350 rpm orbital shake. After incubation, an aliquot was taken from each side of the membrane and quenched by adding acetontrile to a 3:1 ratio (v/v, ACN:plasma). After quenching, samples were centrifuged (32×G) to pellet precipitated particulates and an aliquot of supernatant was diluted 50/50 (v/v) with water. The resulting solution was analyzed by UPLC-MS/MS with compounds detected by MRM detection on a triple quadrupole mass spectrometer. The compound peak area on the buffer side of the membrane was compared to the peak area on the plasma side of the membrane to determine percent bound. Percent bound in plasma was calculated through the following equations: % free=[area (buffer)/area (plasma)]×100. % bound=100−% free.

Plasma stability = format: in vitro ADME
Experimental: Plasma stability was determined at 37° C. at 5 hr in plasma. Each compound was prepared in duplicate at 5 μM in plasma diluted 50/50 (v/v) with PBS pH 7.4 (0.95% acetonitrile, 0.05% DMSO). Duplicate plates were prepared. One plate was incubated at 37° C. for 5 hr with a 350 rpm orbital shake, while the other plate was immediately quenched. Each well was quenched by adding acetonitrile to a 3:1 ratio (v/v, ACN/plasma). After quenching, samples were centrifuged (32×G) to pellet precipitated particulates and an aliquot of supernatant was diluted 50/50 (v/v) with water. The resulting solution was analyzed by UPLC-MS/MS with compounds detected by MRM detection on a triple quadrupole mass spectrometer. The compound peak areas at 0 and 5 hr were compared to determine a percent remaining. Percent remaining in plasma was calculated through the following equation: % remaining=[area (5 hr)/area (0 hr)]×100. (LC System, Waters Acquity I-Class; MS System, AB Sciex Triple Quad 4500; Column, Waters Acquity UPLC BEH C18, 1.7 μm, 2.1×50 mm; Mobile Phase A, Water with 0.1% formic acid; Mobile Phase B, Acetonitrile with 0.1% formic acid; Flow Rate, 0.90 mL/min; Column Temperature, 55° C.).

rhodopsin P23H = experiment: GFP fluorescence in N cells expressing rhodopsin P23H-GFP; format: cell-based, human; settings: 5 μM, 24 hours
Experimental: N cells plated in 96-well plates were transfected with 20 ng/well of P23H mutant rhodopsin-GFP plasmid DNA using Lipofectamine 3000 (Thermo Fisher Scientific®). Eight hr post-transfection, the cells were washed and processed as described below.
For the GFP-rhodopsin experiments (FIGS. 15D and 15E), cells were identified by digital phase contrast. GFP signal was calculated only in cells expressing GFP signal above a minimal background (to identify successfully transfected cells) and the mean intensity was averaged for each well.
Detection of MUC1-fs in P cells at baseline and following secretory pathway perturbations was performed using immunoblot and IF analyses. For immunoblot experiments (FIGS. 5E and 13D), P cells were grown in 6-well plates to high confluence. For IF experiments (FIGS. 5B-5D and 13A-13C), P cells were plated in 384-well plates at 12,000 cells/well. Following 24 hr, cells were treated with 5 μM BRD-4780 or DMSO alone, or in combination with 100 nM Bafilomycin A (B1793, Sigma-Aldrich), or 200 ng/mL Brefeldin A (B7651, Sigma-Aldrich) for a maximum period of 24 hr as indicated. For TMED9 or Nischarin depletion experiments, transduced/transfected P cells were plated either in 96-well plates at 60,000 cells/well for IF (FIGS. 6C, 6D and 14B), or grown in 6-well plates to high confluence for immunoblot detection (FIGS. 6B and 14C). […]

Question: Which “effect on MUC1 transcriptional regulation” value (total MUC1 mRNA) does the source give for CC(C)[C@@H]1[C@H]2CC[C@H](C2)[C@H]1N (racemic) [BRD-4780, 2-endo-amino-3-exo-isopropylbicyclo[2.2.1]heptane] here?
Answer: no effect on MUC1 transcriptional regulation

Question: And the in vitro toxicity [1]?
Answer: no overt toxicity at any concentration tested

Question: What about the bioavailability (in vivo; male, 129S2/SvPasCrl) of the same compound?
Answer: 119%

Question: And the “oral bioavailability (in words)” value (in vivo; po)?
Answer: excellent oral bioavailability

Question: What about the MUC1-fs subcellular distribution (MUC1-fs) of the same compound?
Answer: reduced in the early secretory compartment

Question: And the “rhodopsin accumulation in intracellular compartments of retina” value (Rhodopsin)?
Answer: significantly reduced rhodopsin accumulation in intracellular compartments

Question: What about the “protein binding (in words)” value [2] of the same compound?
Answer: low protein binding

Question: What about the “estimated percent protein bound” value ([2]; plasma) of the same compound?
Answer: 29.7%

Question: What about the plasma stability (Plasma stability) of the same compound?
Answer: good microsomal and plasma stability

Question: What about the “GFP fluorescence of GFP-rhodopsin P23H” value (rhodopsin P23H) of the same compound?
Answer: significantly decreased GFP fluorescence at 24 hours
